Measurements: patent publication US20190298664A1, “METHOD AND KIT FOR MYOCARDIAL REPERFUSION, AND METHOD FOR ATTENUATING OR REDUCING MYOCARDIAL REPERFUSION INJURY” (Academia Sinica, priority 2018, published 2019)
Where two headings read alike, the source gives them in different places.

Legend:
I/R mice = experiment: Histopathology (H&E, Masson Trichrome) one week post-I/R in mice; type: in vivo, mouse; conditions: 2 mg/kg IP; one week after I/R
Text: (A) The representative echocardiographic images, (B) the quantification of ejection fraction, (C) the representative histopathologic […]) the quantification of infarct size were obtained from the mice with the indicated treatments for one week post-I/R (n=8). (E) The representative enlarged H&E stain obtained from mice one week post-I/R. The areas highlighted in yellow boxes (left panel) are shown by the enlarged view (right panel). (F) The representative Masson Trichrome stain obtained from mice one week post-I/R. The black arrows indicate the location of inflammation or fibrosis in the myocardium. I/R: I/R-mice treated with the vehicle control, I/R+A: […] treated with Auranofin. (B) and (D) **P<0.01. We anesthetized the mouse with 5% isoflurane mixed with room air until loss of sensation of pain and then maintained the mouse in anesthesia status with 2% isoflurane mixed with room air through the whole procedure. The mouse's body temperature was maintained at 37° C. by a heating pad. After the mouse was intubated, we provided artificial ventilation to the mouse with a small animal ventilator. Then the chest cavity was opened at the second intercostal space and homemade chest retractors were utilized to widen the incision. We pulled the pericardium apart carefully and exposed the left anterior descending artery (LAD). A 7-0 silk was put underneath the LAD at the position of the tip of the left auricle, a 6 mm length of PE-10 tube was put on the surface of the LAD, and then a double knot was made to occlude the blood flow of LAD. The success of ligation was confirmed by […] anterior wall of the LV. For the reperfusion group, the LAD knot would be untied for the purpose of reperfusion after 1 hour of ischemia. For the sham operation group, all procedures were the same except for the knot that occluded the LAD flow. After the successful procedure, we left the silk in situ, closed the chest cavity and weaned the animal from the ventilator.

[1] = system: phosphorylation of Paxillin and p130Cas in H9C2 cells; experiment: Immunoblotting of H9c2 total lysates for pTyr of Paxillin and p130Cas; type: cell-based; conditions: H9C2 cells treated with indicated concentrations
Protocol: Hearts from mice received different treatment were gently homogenized in ice-cold RIPA buffer [250 mM Tris-HCl pH 7.4, 750 mM NaCl, detergent mix (5% NP-40, 2.5% Na-deoxycholate and 0.5% SDS), and 1× protease inhibitor cocktail (EDTA free)] containing phosphatase inhibitors (2 mM Na3VO4, 10 mM NaF, and 10 mM Na2P2O7). The homogenates were centrifuged at 16,100×g at 4° C. for 10 minutes to remove the debris. Protein concentrations were determined by Bradford protein assay. Equal amounts of protein extract from those mice were separated by SDS-PAGE on an 8% or 10% polyacrylamide gel and then transferred to PVDF membrane. Membranes were incubated with indicated primary antibody at 4° C. overnight followed by incubated with secondary antibodies for 1 hour at room temperature. The protein abundance was detected by the signal intensity of each specific band. H9C2 cell lines were purchased from ATCC® organization, U.S. Cell cultures were maintained in Dulbecco modified Eagle medium (DMEM) supplemented with 10% fetal bovine serum (FBS) and 1% Penicillin/Streptomycin at 37° C. incubator in a 5% CO2 humid atmosphere.

[2] = target: T1, PTP-PEST catalytic domain (Homo sapiens, UniProt Q05209); experiment: IC50 kinetic assay: phosphatase activity of purified PTP-PEST catalytic domain with phospho-Paxillin peptide substrate; type: biochemical
T1 construct: PTP PEST Catalytic Domain construct (Amino Acid:1-300) with 6 His tag at N-terminal; 6 His (N, cleaved yes); made in house; host or cells: Sf9 insect cells (Sf9-VECL-01), Bac-to-Bac baculovirus system
T1 sequence (Q05209 1-300): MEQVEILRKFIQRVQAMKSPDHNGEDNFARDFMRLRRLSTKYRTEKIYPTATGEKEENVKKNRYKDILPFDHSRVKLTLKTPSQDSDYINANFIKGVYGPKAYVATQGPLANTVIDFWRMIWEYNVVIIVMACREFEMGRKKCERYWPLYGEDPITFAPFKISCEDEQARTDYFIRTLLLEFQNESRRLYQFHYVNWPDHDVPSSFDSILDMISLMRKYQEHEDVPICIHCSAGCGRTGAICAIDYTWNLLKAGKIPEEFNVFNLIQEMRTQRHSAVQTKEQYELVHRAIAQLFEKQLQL
Protocol: PTP PEST Catalytic Domain construct (Amino Acid:1-300) with 6 His tag at N-terminal were expressed in insect cell Sf9-VECL-01 Cell line, using Bac-to-Bac Baculovirus expression system. Cells were infected with baculovirus at 27° C. and harvested after 65 hours of infection. Post harvesting cell suspension were centrifuged and pellet was stored at -80° C. To purify the protein, pellet was thawed and then dissolved in lysis buffer containing 50 mM Tris-HCl, 500 mM NaCl, 5% Glycerol, pH-7.5, and protease inhibitor cocktail tablet, EDTA free from Roche. Cell were lysed by TS-series cell disrupter (Constant System Ltd.) then lysate was centrifuged at 20000 RPM for 30 minutes at 4° C. using JA25.5 rotor in an Avanti J-26-XPI Centrifuge. […] After SEC purity of the protein was analyzed by SDS page and quantification was carried out by using NanoDrop Spectrophotometer. […] The absorbance of the reaction was measured at 650 nm by using Tecan Infinite […] instrument. The absorbance value was converted to amount of phosphate produced in reaction based on the standard curve generated from known phosphate concentration. Data generated in the reaction was fitted using nonlinear regression mode and IC50 value were calculated based on the equation function “Log(inhibitor) vs response-variable slope” from Graph Pad Prism 5.0.

In the case of `CC(=O)OC[C@H]1O[C@@H]([S-])[C@H](OC(C)=O)[C@@H](OC(C)=O)[C@@H]1OC(C)=O.CCP(CC)CC.[Au+]` [Auranofin, auranofin], the Fibrosis (I/R mice) is reported as “less”, the “Infarct size (pathological study, H&E)” value (I/R mice) is reported as “smaller” and the Infiltrating inflammatory cells (I/R mice) is reported as “fewer”. For the same compound, the “Myocardial thinning over the injured area” value (I/R mice) was “a minor degree”, the “Phosphorylation on the specific Tyr residue in Paxillin or p130Cas” value [1] was “increase” and the IC50 ([2]; read-out: IC50 of the auranofin to the PTP-PEST, as restated in the summary) was 38.7 µM. For the same compound, the IC50 ([2]; synthetic phospho-Paxillin peptide as substrate, 25 nM protein, 50 μM peptide, 30° C., 30 min, read-out: IC50 on enzymatic activity of purified PTP-PEST) was 38.7 µM.
